# From PMC4608580, “Synthesis and Evaluation of Biological Activity of Antimicrobial – Pro-Proliferative Peptide Conjugates” (PLoS ONE, 2015)
# Where two headings read alike, the source gives them in different places. No end group written: not given here.
# Experiments:
# [1] = test system: human primary dermal fibroblasts; assay: Cell proliferation assay (MTT); assay type: cell-based; settings: 72 h, serum-free DMEM, peptide at 1–25 μg/mL
# Description: Biopsies of healthy human skin were obtained aseptically from three donors (47–69 years old) undergoing circumcision after obtaining their written informed consent. All the procedures were approved by the Ethics Committee of Medical University of Gdansk (NKEBN/483/2011. Issued: 2011-12-19). The samples were washed several times with sterile PBS (Sigma-Aldrich, Germany) containing antibiotic (200 U/mL penicillin and 200 μg/mL streptomycin), after which, the subcutaneous tissue was cut off with a sharp blade. The resulting sheets were cut into small fragments, washed two times with sterile PBS and treated with 6 U/mL dispase II (BD, USA) overnight at 4°C to separate epidermis and dermis. The dermis was then digested with 1.0 mg/mL collagenase type I (from Clostridium histolyticum Sigma-Aldrich, Germany) for 2 hours at 37°C to isolate fibroblasts. Cells were used between the 2nd and 4th passage in all experiments.
# (§1) In our study two kind of cells were used: immortalized human HaCaT keratinocytes (DKFZ Heidelberg, Germany) and primary dermal fibroblasts obtained from 3 healthy donors. Both types of the used cell lines were grown in Dulbecco's modified Eagle's medium (DMEM) (Sigma–Aldrich, Germany), that contained […] of glucose, […] of L-glutamine, sodium pyruvate and sodium bicarbonate. Additionally, medium was supplemented with 10% of FCS (fetal calf serum, Sigma-Aldrich, Germany), 100 U/mL of penicillin and 100 μg/mL streptomycin (Sigma-Aldrich, Germany). The cells were grown in culture dishes (BD, USA) under standard conditions in a humidified atmosphere with 5% CO2 at 37°C and medium was changed every 2 days.
# The fibroblasts and keratinocytes were seeded at density of 4500 and 6000 cells per well, respectively, into 96-well plates suspended in a medium supplemented with 10% of FCS. After 24 h the media were exchanged with serum- and antibiotic- free DMEM and tested peptides dissolved in PBS were added yielding final concentration ranging from 1 to 50 μg/mL. Cells were incubated for the next 24 hours, when the medium was exchanged again and fresh portion of peptides (used at the same concentrations as previously) was added. Incubation was continued for the next 48 hours (the overall time of cell exposition to peptide was 72 h). […] After 15 min when the purple crystals of formazan were fully solubilized, absorbance was read at 570 nm with a plate reader. […]
# Fig 1 Pro-proliferative activity of the tested peptides towards human keratinocytes (A) and fibroblasts (B). […] The data represents results of MTT assay expressed as the percentage of the cell viability in comparison to their control sample (cells incubated in serum-free DMEM without tested peptides), additional positive control corresponds to the cells incubated in the presence of 10% FCS. […]
# [2] = test system: immortalized human HaCaT keratinocytes; assay: Cell proliferation assay (MTT); assay type: cell-based; settings: 72 h, serum-free DMEM, whole range 1–50 μg/mL, vs. control without peptide, triplicate
# Description: as §1
# The fibroblasts and keratinocytes were seeded at density of 4500 and 6000 cells per well, respectively, into 96-well plates suspended in a medium supplemented with 10% of FCS. After 24 h the media were exchanged with serum- and antibiotic- free DMEM and tested peptides dissolved in PBS were added yielding final concentration ranging from 1 to 50 μg/mL. Cells were incubated for the next 24 hours, when the medium was exchanged again and fresh portion of peptides (used at the same concentrations as previously) was added. Incubation was continued for the next 48 hours (the overall time of cell exposition to peptide was 72 h). At the end of the experiment cells were treated with 20 μL of MTT (5 mg/mL in PBS). After 3 h at 37°C under 5% CO2 medium was discarded and replaced by 6mM HCl in isopropanol. After 15 min when the purple crystals of formazan were fully solubilized, absorbance was read at 570 nm with a plate reader. The optical density reflects the level of cell viability as MTT is converted in purple formazan product only in the presence of viable mitochondria of the living cells.
# Fig 1 Pro-proliferative activity of the tested peptides towards human keratinocytes (A) and fibroblasts (B). Cells were incubated for 72 hours in serum-free DMEM medium in the presence of peptides applied at concentrations of 1,10, 25 and 50 μg/mL, respectively. The data represents results of MTT assay expressed as the percentage of the cell viability in comparison to their control sample (cells incubated in serum-free DMEM without tested peptides), additional positive control corresponds to the cells incubated in the presence of 10% FCS. All experiments were performed independently in triplicate. *P < 0.05, **P < 0.01, ***P < 0.001 vs. control.
# In order to evaluate a long-term effect of peptides, experiments were carried out for 72 hours. Before addition of the tested compounds, the cell medium was exchanged for the fresh one not containing any serum or antibiotic.
# [3] = test system: B. cereus; assay type: cell-based; settings: 24 h
# Description: (§2) Luria-Bertani broth (LB) and Sabouraud Dextrose broth (SB) (Biocorp, Poland) were used for cultivation of bacteria and fungi strains, respectively. Antimicrobial activity of peptides was analyzed through determination of MIC (minimal inhibitory concentration) parameter according to the standard microdilution technique performed on 96-well plates. Mueller-Hinton broth (MHB) was used as the working medium for all bacterial strains, while in case of fungi it was additionally supplemented with 2% glucose.
# (§3) Briefly, inoculum was prepared from freshly grown cultures of microorganisms being at their exponential phase of growth. Each well of 96-well plates containing 100 μL of serially diluted peptides in PBS (phosphate buffer saline) at concentration ranging from 2 to 250 μg/mL were inoculated with 100 μL of approximately 10^5 CFU/mL of bacterial suspension or about 2.5 x 10^3 CFU/mL of fungi suspended in a double concentrated Mueller-Hinton broth (supplemented with 2% glucose for Candida spps.). Then plates were incubated overnight at 37°C and absorbance was read at 590 nm after 24 h. Cultures without peptide were treated as positive control, while uninoculated Mueller-Hinton broth was defined as negative control. All measurements were run at least in triplicate.
# (§4) All peptides were screened against the wide range of microorganisms, including Gram-negative, Gram-positive bacteria and fungi from Candida species (Table 2). Broth microdilution method for MIC determination was used as a standard procedure. All assays were performed on liquid Mueller-Hinton broth, which was additionally supplemented with 2% glucose when fungicidal activity towards Candida spps. was analyzed.
# [4] = test system: B. subtilis; assay type: cell-based; settings: 24 h
# Description: as §2, §3, §4
# [5] = Circular dichroism, alpha-helical content; assay type: physicochemical; settings: CD, mean residue ellipticity at 222 nm (Eq 1), peptide 0.4 mg/ml in 30 mM SDS, room temperature
# Description: Circullar dichroism spectra of analyzed compounds were recorded on a Jasco J-815 spectropolarimeter using a quartz cell of 1 mm path length between 195–260 nm at room temperature. Peptides at concentration of 0.4 mg/ml were dissolved in water or 30 mM SDS solution. SDS micelle system was used as the simplified model of negatively charged lipid membrane. On the basis of the obtained results the alpha-helical content was determined from the mean residue ellipticities at 222 nm according to Eq 1: %Helix=([θ]obs/([θ]helixx(1−2.57/l))x100, (1) where [θ] obs is the experimentally observed mean-residue ellipticity at 222 nm, [θ]helix is the theoretical ellipticity of peptide of infinite length with a 100% helix population, taken as -39 500 deg·cm^2/dmol, and l is the number of peptide bonds.
# Circular dichroism method was applied to obtain a basic information about the secondary structure of the synthesized compounds (with the exception of CAR, CAR3, DAL, CTEN2) in two chemical environments, water and 30 mM SDS. As expected, all the tested compounds in water adopted a random-coil structure, while in the presence of 30 mM SDS most of them formed α-helices with characteristic negative minima around 208 and 220 nm. […] The examples of CD spectra for selected peptides could be seen in supporting information (Figure A in S1 File). On the basis of the experimentally obtained values of the mean residue ellipticities of peptides at 222 nm their alpha-helical content was calculated according to the Eq 1 (Table 1).
# [6] = test system: Candida parapsilosis (CCM 8260); assay type: cell-based; settings: broth microdilution, Mueller-Hinton broth + 2% glucose, about 2.5 x 10^3 CFU/mL, 37°C, 24 h, absorbance 590 nm, at least triplicate
# Text: (§5) Escherichia coli (PCM 2057), Staphylococcus aureus (PCM 2054), Staphylococcus epidermidis (PCM 2118), Pseudomonas aeruginosa (PCM 499) were obtained from Polish Collection of Microorganisms. Fungi strains Candida albicans (CCM 8186), Candida glabrata (CCM 8270), Candida parapsilosis (CCM 8260), Candida krusei (CCM 8271), Candida tropicalis (CCM 8264) were acquired from Czech Collection of Microorganisms.
# as §2, §3, §4
# [7] = test system: Candida glabrata (CCM 8270); assay type: cell-based; settings: broth microdilution, Mueller-Hinton broth + 2% glucose, about 2.5 x 10^3 CFU/mL, 37°C, 24 h, absorbance 590 nm, at least triplicate
# Text: as §5, §2, §3, §4
# [8] = test system: Candida tropicalis (CCM 8264); assay type: cell-based; settings: broth microdilution, Mueller-Hinton broth + 2% glucose, about 2.5 x 10^3 CFU/mL, 37°C, 24 h, absorbance 590 nm, at least triplicate
# Text: as §5, §2, §3, §4
# [9] = test system: Pseudomonas aeruginosa (PCM 499); assay type: cell-based
# Text: as §5, §2, §3, §4
# [10] = test system: Escherichia coli (PCM 2057); assay type: cell-based
# Text: as §5, §2, §3, §4
# [11] = test system: Candida krusei (CCM 8271); assay type: cell-based; settings: broth microdilution, Mueller-Hinton broth + 2% glucose, about 2.5 x 10^3 CFU/mL, 37°C, 24 h, absorbance 590 nm, at least triplicate
# Text: as §5, §2, §3, §4
# [12] = test system: Staphylococcus epidermidis (PCM 2118); assay type: cell-based
# Text: as §5, §2, §3, §4
# [13] = test system: Staphylococcus aureus (PCM 2054); assay type: cell-based
# Text: as §5, §2, §3, §4
# [14] = test system: Candida albicans (CCM 8186); assay type: cell-based; settings: broth microdilution, Mueller-Hinton broth + 2% glucose, about 2.5 x 10^3 CFU/mL, 37°C, 24 h, absorbance 590 nm, peptide 2 to 250 μg/mL, at least triplicate
# Text: as §5, §2, §3, §4
# [15] = broth microdilution, Mueller-Hinton broth, approximately 10^5 CFU/mL, 37°C, absorbance 590 nm, at least triplicate
# [16] = broth microdilution, Mueller-Hinton broth, approximately 10^5 CFU/mL, 37°C, 24 h, absorbance 590 nm, at least triplicate
Substance,"Effect on fibroblast cell count (MTT), in words [1]","Effect on HaCaT cell viability/proliferation (MTT), in words [2]","MIC B. cereus [3, 15] [µg/mL]","MIC B. subtilis [4, 15] [µg/mL]",α-helicity [5] [%],MIC C. parapsilosis [6] [µg/mL],MIC C.glabrata [7] [µg/mL],MIC C.tropicalis [8] [µg/mL],"MIC P. aeruginosa [9, 16] [µg/mL]","MIC E.coli [10, 16] [µg/mL]",MIC C.krusei [11] [µg/mL],"MIC S. epidermidis [12, 16] [µg/mL]","MIC S.aureus [13, 16] [µg/mL]",MIC C. albicans [14] [µg/mL],MIC B. cereus [3] [µg/mL],MIC B. subtilis [4] [µg/mL],"MIC P. aeruginosa ([9]; PCM 499, 24 h) [µg/mL]","MIC E.coli ([10]; PCM 2057, 24 h) [µg/mL]","MIC S. epidermidis ([12]; PCM 2118, 24 h) [µg/mL]","MIC S.aureus ([13]; PCM 2054, 24 h) [µg/mL]"
EGLEPG [CTEN2],Increased cell count,non-toxic,,,,,,,,,,,,,,,,,,
"EGLEPG-PEG-IKKILSKIKKLLK-NH2 [CTEN2-PEG-LK6, conjugate of CTEN2 and LK6 joined by PEG-linker]",,,>125,7.8,20,125,>125,7.8,>125,>125,15.6,7.8,>125,125,,,,,,
"IKKILSKIKKLL-PEG-YAGFLR [DK5-PEG-DAL, conjugate of DK5 and dalargin joined by PEG-linker (8-amino-3,6-dioxaoctanoic acid)]",,negative dose-response relationship,>125,7.8,20,2.0,>125,7.8,>125,7.8,7.8,7.8,>125,100,,,,,,
"IKKILSKIKKLLK-NH2 [LK6, reference compound]",,,,,,,,,,,,,,,50,7.8,25,>125,7.8,100
